# Data as given in BindingDB's records for doi:10.7270/Q2416VG3 (Nmmlsc, 2010).
# Biological target: T1, Regulator of G-protein signaling 7 (Homo sapiens, UniProt P49802)
# T1 sequence (P49802 whole entry): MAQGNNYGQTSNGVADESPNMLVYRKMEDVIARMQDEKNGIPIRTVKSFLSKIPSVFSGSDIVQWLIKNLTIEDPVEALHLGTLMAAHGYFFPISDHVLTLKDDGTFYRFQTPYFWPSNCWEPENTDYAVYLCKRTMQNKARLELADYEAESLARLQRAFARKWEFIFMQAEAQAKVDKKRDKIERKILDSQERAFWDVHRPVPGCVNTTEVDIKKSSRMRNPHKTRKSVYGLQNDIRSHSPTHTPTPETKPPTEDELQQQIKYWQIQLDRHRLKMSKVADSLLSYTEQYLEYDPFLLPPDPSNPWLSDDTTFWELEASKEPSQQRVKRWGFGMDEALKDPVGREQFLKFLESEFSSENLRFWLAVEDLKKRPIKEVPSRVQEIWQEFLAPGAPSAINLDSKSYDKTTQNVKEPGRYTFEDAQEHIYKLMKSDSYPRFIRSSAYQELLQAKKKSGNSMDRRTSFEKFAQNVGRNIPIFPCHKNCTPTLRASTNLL
# Test: RGS7-Galphao binding modulators, SAR follow-up, biochemical, multiplexed bead flow cytometry, SAR compounds (AID 2296)
# Conditions: not given
row,Compound,EC50 [nM]
1,CN1CCN(C2=C(Cl)C(=O)C(c3cnc(N4CCCCC4)s3)=C(Cl)C2=O)CC1,87
2,CCN=c1scc(C)n1N=Cc1ccc(O)c(O)c1O,449
3,CCN(CC)S(=O)(=O)c1cccc(C(=O)NN=Cc2ccc(O)c(O)c2O)c1,381
4,Cc1[nH]n(-c2ccccc2)c(=S)c1C=NCCCN=Cc1c(C)[nH]n(-c2ccccc2)c1=S,2200
5,Cc1cccc(N2CCN(C(=O)COc3nsc4nc(C)cc(C)c34)CC2C)c1 (stereo unspecified),> 30000
6,"Cc1cccc(N2CCN(C(=O)Cn3ccc4nc(C)cc(C)c4c3=O)CC2C)c1 (stereo unspecified) [2,4-dimethyl-6-[2-[3-methyl-4-(3-methylphenyl)piperazin-1-yl]-2-oxidanylidene-ethyl]-1,6-naphthyridin-5-one]",> 30000
7,"Cc1cc(C)c2c(=O)n(CC(=O)N3CCN(c4ccccc4)CC3)ccc2n1 [2,4-dimethyl-6-[2-oxidanylidene-2-(4-phenylpiperazin-1-yl)ethyl]-1,6-naphthyridin-5-one]",67
8,"Cc1cc(C)c2c(n1)CCN(CC(=O)N1CCN(c3ccccc3)CC1)C2=O [2,4-dimethyl-6-[2-oxidanylidene-2-(4-phenylpiperazin-1-yl)ethyl]-7,8-dihydro-1,6-naphthyridin-5-one]",> 30000
9,"O=c1c2ccccc2sn1-c1ccc(S(=O)(=O)N2CCCC2)cc1 [2-(4-pyrrolidin-1-ylsulfonylphenyl)-1,2-benzothiazol-3-one]",> 30000
10,"Cc1cccc(N2CCN(C(=O)Cn3sc4nc(C)cc(C)c4c3=O)CC2C)c1 (stereo unspecified) [2-[2-keto-2-[3-methyl-4-(m-tolyl)piperazino]ethyl]-4,6-dimethyl-isothiazolo[5,4-b]pyridin-3-one]",> 30000
11,"Cc1cccc(N2CCN(C(=O)COc3noc4nc(C)cc(C)c34)CC2C)c1 (stereo unspecified) [2-[(4,6-dimethyl-[1,2]oxazolo[5,4-b]pyridin-3-yl)oxy]-1-[3-methyl-4-(3-methylphenyl)piperazin-1-yl]ethanone]",> 30000
12,"O=c1c2ccccc2sn1-c1ccccc1 [2-phenyl-1,2-benzothiazol-3-one]",> 30000
13,"CC(NC(=O)c1sc2cc([N+](=O)[O-])ccc2c1Cl)C(C)(C)C (stereo unspecified) [3-chloranyl-N-(3,3-dimethylbutan-2-yl)-6-nitro-1-benzothiophene-2-carboxamide]",> 30000
14,O=C(NCCCN1CCOCC1)c1sc2cc([N+](=O)[O-])ccc2c1Cl [3-chloranyl-N-(3-morpholin-4-ylpropyl)-6-nitro-1-benzothiophene-2-carboxamide],> 30000
15,"COC(=O)CCC(=O)Nc1sc(C)c(C)c1C(N)=O [4-[(3-carbamoyl-4,5-dimethyl-2-thienyl)amino]-4-keto-butyric acid methyl ester]",> 30000
16,"CCN(CC)S(=O)(=O)c1cccc(-c2n[nH]c(=S)n2N=Cc2ccc(C(=O)OC)cc2)c1 [4-[(E)-[3-[3-(diethylsulfamoyl)phenyl]-5-thioxo-1H-1,2,4-triazol-4-yl]iminomethyl]benzoic acid methyl ester]",> 30000
17,"NS(=O)(=O)c1ccc(N=NCc2ccc(O)c(O)c2O)c([N+](=O)[O-])c1 [4-[[(E)-(2,3-dihydroxy-4-oxo-1-cyclohexa-2,5-dienylidene)methyl]hydrazo]-3-nitrobenzenesulfonamide]",141
18,"CCOC(=O)c1sc(NC(=O)CSc2nnc(Cc3ccccc3)o2)c(C#N)c1C [4-cyano-3-methyl-5-[[1-oxo-2-[[5-(phenylmethyl)-1,3,4-oxadiazol-2-yl]thio]ethyl]amino]-2-thiophenecarboxylic acid ethyl ester]",> 30000
19,"CN=c1scc(C)n1N=Cc1ccc(O)c(O)c1O [(4E)-2,3-dihydroxy-4-[[(4-methyl-2-methylimino-1,3-thiazol-3-yl)amino]methylidene]cyclohexa-2,5-dien-1-one]",244
20,Cc1[nH]n(-c2ccccc2)c(=S)c1/C=N/c1cccc([N+](=O)[O-])c1 [(4E)-5-methyl-4-[(3-nitroanilino)methylene]-2-phenyl-2-pyrazoline-3-thione],> 30000
21,Cc1cccc(N2CCN(C(=O)CN3CCc4nc(C)cc(C)c4C3=O)CC2C)c1 (stereo unspecified) [KUC103675N],> 30000
22,"O=C(COc1ccccc1C(=O)NN=Cc1ccc(O)c(O)c1)NN=Cc1ccc(O)c(O)c1 [N''-[(Z)-(3-hydroxy-4-oxo-1-cyclohexa-2,5-dienylidene)methyl]-2-[2-[[(Z)-(3-hydroxy-4-oxo-1-cyclohexa-2,5-dienylidene)methyl]hydrazo]-2-oxoethoxy]benzohydrazide]",> 30000

# The remaining lines, values ahead:
row,EC50 [nM],Compound
1,> 30000,CC(=O)OCCCNc1cc(Sc2nc3ccccc3s2)c2nonc2c1[N+](=O)[O-] [MLS000521052]
2,> 30000,Cc1cc(Cl)ccc1/N=c1/ssnc1Cl [MLS000539990]
3,158,O=C1C(Cl)=C(N2CCCCC2)C(=O)C(Cl)=C1c1cnc(N2CCCCC2)s1 [MLS000550549]
4,4410,CCC(=O)NC(c1ccc(C)cc1)c1cc([N+](=O)[O-])c2cccnc2c1O (stereo unspecified) [MLS000553854]
5,356,COc1ccc(C2=CC(=O)C=CC2=O)cc1 [MLS001029846]
6,1870,CC1(C)OC(=O)C(=Cc2ccc(-c3ccc(S(N)(=O)=O)cc3)o2)C(=O)O1 [SMR000273939]
7,421,O=C(Cc1csc(N2CCOCC2)n1)NN=Cc1ccc(O)c(O)c1O [SMR000369439]
8,146,Nc1c(C(=O)NCC2CCCO2)sc2nc3c(c(-c4ccco4)c12)CC/C3=C/c1ccco1 (stereo unspecified) [UNM-0000305796]

# Same assay, conditions: inactive by the depositor's call
row,EC50 [nM],Compound
1,3570,CCOc1ccccc1-c1c2cc(O)c(=O)cc-2oc2cc(O)c(O)cc12 [MLS000578271]
